In US9464326B2, “Total and phosphorylated IL-1 receptor-associated kinase-1 and IL-1 receptor-associated kinase-4 as a biomarker for cancer progression and chemotherapy resistance” (University of Maryland, Baltimore, priority 2012, dated 2016):

Test system: CCRF-CEM cells
Assay: Cell number and apoptosis assays
Type: cell-based, human
Conditions: IRAK-1,-4 inhibitor 0-20 μM plus titrated drug, apoptosis by 7AAD at 48 hours, FIG. 23
Procedure: TLR ligands were diluted 2-fold. Cell lines (25-40×10^3/well) were cultured for 54 hours, whereas fresh patient-derived T-ALL cells (200×10^3/well) were cultured for 30 hours prior to adding [^3H]-thymidine for 18 hours. After this time point, cells were harvested with a Packard Filter-Mate-96 cell harvester (Perkin Elmer, Waltham, Mass., USA) and counted on Packard Top Count-NXT (Perkin Elmer, Waltham, Mass., USA). Results were expressed as average counts per minute (cpm). In some experiments CCRF-CEM cells were pre-treated with TLR1-TLR2 ligand (Pam3CysK4; 2.5 ug/ml) for 48 hrs, washed, and then cultured in the presence of varying concentrations of FBS. Forty-eight hours later, proliferation (±SD) was determined by ^3H-thymidine incorporation. Alternatively, apoptosis was measured by flow cytometry after staining cells with Annexin-V (BD Pharmingen, San Diego, Calif., USA) and propidium iodide (Sigma). Cell number was counted under microscopy by staining cells with trypan blue.
CCRF-CEM cells were treated with IRAK-1,-4 inhibitor for 24, 48, 72, and 96 hours.
The T-ALL cell line CCRF-CEM was cultured in the presence of 0, 1.2, 5, 10, and 20 μM IRAK-1,-4 inhibitor. (FIG. 23). To each concentration of IRAK-1,-4 inhibitor titrating doses of ABT-737 (1000→15 nM) vincristine, VS (10→0.1 nM), and paclitaxol, PAC (100→1.5 nM). […] Apoptosis was measure 48 hours later by staining cells with 7AAD and analyzed by flow cytometry.

| SMILES | synergy with IRAK-1,-4 inhibitor |
| --- | --- |
| CN(C)CC[C@H](CSc1ccccc1)Nc1ccc(S(=O)(=O)NC(=O)c2ccc(N3CCN(Cc4ccccc4-c4ccc(Cl)cc4)CC3)cc2)cc1[N+](=O)[O-] [ABT-737] | synergy |
| CC(=O)O[C@H]1C(=O)[C@@]2(C)[C@H]([C@H](OC(=O)c3ccccc3)[C@]3(O)C[C@H](OC(=O)[C@H](O)[C@@H](NC(=O)c4ccccc4)c4ccccc4)C(C)=C1C3(C)C)[C@]1(OC(C)=O)CO[C@@H]1C[C@@H]2O [paclitaxel] | synergy |
